The source of these data is patent US20200115698A1, “PHARMACEUTICAL COMBINATION FOR TREATMENT OF FABRY DISEASE AND USE THEREOF” (MEIJI PHARMACEUTICAL UNIVERSITY, priority 2017, published 2020).

One test concerns the target T1, recombinant α-GAL (Homo sapiens, UniProt P06280).
T1 sequence (P06280 32-429): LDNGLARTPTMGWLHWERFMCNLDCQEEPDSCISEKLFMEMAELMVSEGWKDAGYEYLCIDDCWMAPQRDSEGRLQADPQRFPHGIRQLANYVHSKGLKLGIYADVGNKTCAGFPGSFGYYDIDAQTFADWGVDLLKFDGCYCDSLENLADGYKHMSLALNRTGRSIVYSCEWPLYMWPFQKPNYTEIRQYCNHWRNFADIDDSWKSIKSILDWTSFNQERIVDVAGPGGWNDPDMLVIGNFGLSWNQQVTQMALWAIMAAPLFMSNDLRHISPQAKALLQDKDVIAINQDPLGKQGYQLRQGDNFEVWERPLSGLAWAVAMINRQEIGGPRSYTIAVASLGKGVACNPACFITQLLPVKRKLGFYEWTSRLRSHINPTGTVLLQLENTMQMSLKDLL
The settings on record: simultaneous administration to a patient of Fabry disease; cited from earlier work.

A further test addresses T2, α-NAGA mutant (Homo sapiens, UniProt P17050, A191L/S188E).
T2 sequence (P17050 with tags, fused parts or gaps S188E/A191L): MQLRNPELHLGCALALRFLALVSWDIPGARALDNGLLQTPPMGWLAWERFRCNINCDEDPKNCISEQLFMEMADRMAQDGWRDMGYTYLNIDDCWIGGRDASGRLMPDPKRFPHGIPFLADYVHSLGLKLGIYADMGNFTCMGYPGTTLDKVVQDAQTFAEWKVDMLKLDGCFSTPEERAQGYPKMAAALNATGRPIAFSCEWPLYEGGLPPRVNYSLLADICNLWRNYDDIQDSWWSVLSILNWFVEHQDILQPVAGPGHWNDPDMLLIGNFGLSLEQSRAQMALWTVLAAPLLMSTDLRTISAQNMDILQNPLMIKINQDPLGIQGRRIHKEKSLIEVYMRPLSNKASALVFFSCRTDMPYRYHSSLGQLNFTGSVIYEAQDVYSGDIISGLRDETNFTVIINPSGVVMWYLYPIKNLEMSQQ
Description: Calculation of inhibition constant Ki (Lineweaver-Burk plot). The settings on record: substrate 1-8 mM; DGJ 100-400 nM, GBS 200-800 nM; pH 4.6; FIG. 2. It is filed as biochemical. As to the method:
Enzymatic analysis was carried out by using, as a reaction liquid, 50 ng of an α-NAGA mutant and 0.1 M phosphate-citrate buffer (pH 4.6) in which a 4-methylumbelliferylα-D-galactopyranoside substrate was dissolved at any of concentrations (1, 2, 4, 6, and 8 mM) (the total amount was 50 μl). In measuring inhibitory activity, reaction was carried out with a reaction liquid which contained DGJ at a concentration of 100, 200, or 400 nM or GBS at a concentration of 200, 400, or 800 nM. After the reaction was carried out at 37° C. for 10 minutes, 950 μl of 0.2 M glycine buffer (pH 10.7) was added to stop the reaction. Then, released 4-methylumbelliferone was measured at an excitation wavelength of 355 nm and at a fluorescence wavelength of 460 nm with use of Wallac 1420 ARVO MX Multilabel Counter. From these values, a Lineweaver-Burk plot was prepared and an inhibition constant Ki was calculated from slopes in the plot which correspond to respective concentrations of the inhibitor.

As for `OCC1NCC(O)C(O)C1O` [DGJ, (2R,3S,4R,5S)-2-(hydroxymethyl)piperdine-3,4,5-triol], the “stabilization of administered recombinant α-GAL in the blood” value on recombinant α-GAL is recorded as “recombinant α-GAL was stabilized”. Besides, the “inhibition pattern from inhibition constant Ki” value on α-NAGA mutant is given as “inhibitory activity by competitive inhibition”.
